Earlier results in patent US20250019345A1, “NEW CANNABINOID-GAB[…] USES THEREOF” (LONDON PHARMACEUTICALS AND RESEARCH CORPORATION, priority 2021, published 2025).

Conditions: after oral administration; for Tmax: cannabinoids

Compound | Tmax [h] | bioavailability
C=C(C)[C@@H]1CCC(C)=C[C@H]1c1c(O)cc(CCCCC)cc1O [CBD, cannabidiol] | ~4 | –
CCCCCc1cc(O)c2c(c1)OC(C)(C)[C@@H]1CCC(C)=C[C@@H]21 [THC, delta-9-tetrahydrocannabinol] | ~4 | –
CC(C)C[C@H](CN)CC(=O)O [pregabalin] | – | exceed 90%
